In patent publication US3943172A, “Derivatives of 2-amino-(1,2,3,4-tetrahydronaphthalene), the preparation and use thereof” (priority 1972, dated 1976):

Experiments:
[1] = system: premature heart contractions; assay: oral antiarrhythmic activity in rats using aconitine (dose of aconitine to first extrasystoles); format: in vivo; conditions: 75 mg/kg, 75 minutes before aconitine perfusion, acid addition salts; for % Activity versus Lidocaine: relative to lidocaine; for % Activity versus Procainamide: relative to procainamide
Description: The method used for these tests is described hereafter:
Male or female rats with a body-weight ranging from 380 to 450 g.
3.12 μg aconitine nitrate/1 ml physiological saline.
Solution of the compound to be tested:
0.75% in distilled water.
Six random selected animals are required for each compound to be tested. The compound is administered by oral route at the dose of 75 mg/kg (1 ml of the 0.75% solution/100 g of body-weight) 75 minutes before the intravenous perfusion of the aconitine solution is initiated.
Control groups of animals are treated only with distilled water (1 ml/100 g).
60 minutes after the administration of the compound to be tested, the animals are anesthesized by an intraperitoneal injection of Pentobarbital (50 mg/kg) and the jugular vein is dissected.
A catheter is introduced in the vein and fixed by a ligature.
The ECG (D II derivation) is then continuously recorded. The perfusion of the aconitine solution is started 75 minutes after the administration of the compound to be tested.
The volume delivered by the injection device being 0.287 ml/minute, the dose of aconitine nitrate administered is 0.895 μg/minute (0.20 - 0.24 μg/100 g/minute according to the minimal and maximal weight of the animals).
The experience is stopped as soon as the first extrasystoles are appearing and the time elapsed from the beginning of the perfusion is noted.
The results are expressed as the mean total dose of aconitine injected in a group of animals.
The relative activity between a tested compound and a reference substance (lidocaine, procainamide) is computed in the following way: [formula] where: A(x) = activity of tested compound X (in %)
X = mean dose of aconitine in the animals treated by compound X
C = mean dose of aconitine injected in the untreated animals (controls)
R = mean dose of aconitine injected in the animals treated by the reference substances.

[2] = system: tachycardias and fibrillation of ventricular origin; conditions: cited from earlier work; for oral activity: known antiarrhythmic agents, in words

Row | Structure (SMILES) | % Activity versus Lidocaine [1] | % Activity versus Procainamide [1] | oral activity [2] | side effects [2]
1 | CCN(CC)CCN(c1ccccc1)C1CCc2ccccc2C1 (stereo not drawn) [1 H2 H N-diethyl, 2-[N-phenyl-N-(β-diethylaminoethyl)]-amino(1,2,3,4-tetrahydronaphthalene)] | 439% | 560% |  | 
2 | CCN(CC)CCN(c1ccccc1)C1CCc2cc(OC)ccc2C1 (stereo not drawn) [1 H2 OCH3 N-diethyl, 2-[N-phenyl-N-(β-diethylaminoethyl)]-amino-6-methoxy-(1,2,3,4-tetrahydronaphthalene)] | 173% | 220% |  | 
3 | COc1ccc2c(c1)CCC(N(CCN(C)C)c1ccccc1)C2 (stereo not drawn) [1 H2 OCH3 N-dimethyl, 2-[N-phenyl-N-(β-dimethylaminoethyl)]-amino-6-methoxy-(1,2,3,4-tetrahydronaphthalene)] | 57% | 72% |  | 
4 | COc1ccc2c(c1)CCC(N(CCN1CCCCC1)c1ccccc1)C2 (stereo not drawn) [1 H2 OCH3 piperidino, 2-[N-phenyl-N-(β-piperidinoethyl)]-amino-6-methoxy-(1,2,3,4-tetrahydronaphthalene)] | 103% | 131% |  | 
5 | CNCCC(=O)N(c1ccccc1)C1CCc2ccccc2C1 (stereo not drawn) [2 0 H NH-methyl, 2-[N-phenyl-N-(β-methylaminopropionyl)]-amino-(1,2,3,4-tetrahydronaphthalene)] | 769% | 982% |  | 
6 | CCN(CC)CCCN(c1ccccc1)C1CCc2ccccc2C1 (stereo not drawn) [2 H2 H N-diethyl, 2-[N-phenyl-N-(γ-diethylaminopropyl)]-amino-(1,2,3,4-tetrahydronaphthalene)] | 563% | 719% |  | 
7 | CN(C)CCCN(c1ccccc1)C1CCc2ccccc2C1 (stereo not drawn) [2 H2 H N-dimethyl, 2-[N-phenyl-N-(γ-dimethylaminopropyl)]-amino-(1,2,3,4-tetrahydronaphthalene)] | 41% | 52% |  | 
8 | CCNCCCN(c1ccccc1)C1CCc2ccccc2C1 (stereo not drawn) [2 H2 H NH-ethyl, 2-[N-phenyl-N-(γ-ethylaminopropyl)]-amino-(1,2,3,4-tetrahydronaphthalene)] | 703% | 897% |  | 
9 | CNCCCN(c1ccccc1)C1CCc2ccccc2C1 (stereo not drawn) [2 H2 H NH-methyl, 2-[N-phenyl-N-(γ-methylaminopropyl)]-amino-(1,2,3,4-tetrahydronaphthalene)] | 288% | 368% |  | 
10 | c1ccc(N(CCCN2CCCCC2)C2CCc3ccccc3C2)cc1 (stereo not drawn) [2 H2 H piperidino, 2-[N-phenyl-N-(γ-piperidinopropyl)]-amino-(1,2,3,4-tetrahydronaphthalene)] | 62% | 78% |  | 
11 | c1ccc(N(CCCN2CCCC2)C2CCc3ccccc3C2)cc1 (stereo not drawn) [2 H2 H pyrrolidino, 2-[N-phenyl-N-(γ-pyrrolidinopropyl)]-amino-(1,2,3,4-tetrahydronaphthalene)] | 268% | 342% |  | 
12 | CCN(CC)CCCN(c1ccccc1)C1CCc2cc(OC)ccc2C1 (stereo not drawn) [2 H2 OCH3 N-diethyl, 2-[N-phenyl-N-(γ-diethylaminopropyl)]-amino-6-methoxy-(1,2,3,4-tetrahydronaphthalene)] | 96% | 123% |  | 
13 | CCN(CC)CC(=O)Nc1c(C)cccc1C [lidocaine] |  |  | too low | 
14 | CCN(CC)CCNC(=O)c1ccc(N)cc1 [procainamide] |  |  | too short | hypotension
